# Measured values reported in ChEMBL document CHEMBL1201862, “PubChem BioAssay data set” (2004).
#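 Growth conditions: 96-well plates. Treatment: test compound, 48 hours, 5 concentrations. Analysis: linear interpolation between bracketing concentrations; unreached endpoints set to highest concentration. GI50: concentration for 50% inhibition of growth.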 The source made the active and inactive calls. Rule as the data show it: active = GI50 up to about 1.1 µM and inactive = higher.
# Legend:
# Test in all cases: DTP human tumour cell line panel, 48 h
# [1] = tested on: A549
# [2] = tested on: Malme-3M
# [3] = tested on: SK-MEL-28
# [4] = tested on: NCI-H226
# [5] = tested on: COLO 205
# [6] = tested on: CCRF-CEM
# [7] = tested on: SR
# [8] = tested on: ACHN
# [9] = tested on: LOX IMVI
# [10] = tested on: BT-549
# [11] = tested on: OVCAR-5
# [12] = tested on: SN12C
# [13] = tested on: MDA-MB-435
# [14] = tested on: T47D
# [15] = tested on: 786-0
# [16] = tested on: HCT-15
# [17] = tested on: Hs-578T
# [18] = tested on: MDA-N
# [19] = tested on: A498
# [20] = tested on: RPMI-8226
# [21] = tested on: HOP-62
# [22] = tested on: EKVX
# [23] = tested on: IGROV-1
# [24] = tested on: NCI/ADR-RES
# [25] = tested on: KM12
# [26] = tested on: MDA-MB-231
# [27] = tested on: HCT-116
# [28] = tested on: NCI-H522
# [29] = tested on: UACC-62
# [30] = tested on: NCI-H460
# [31] = tested on: TK-10
# [32] = tested on: SF-295
# [33] = tested on: SK-MEL-2
# [34] = tested on: SNB-75
# [35] = tested on: SK-OV-3
# [36] = tested on: HT-29
# [37] = tested on: MOLT-4
# [38] = tested on: M14
# [39] = tested on: OVCAR-4
# [40] = tested on: MCF7
# [41] = tested on: SF-268
# [42] = tested on: UO-31
# [43] = tested on: K562
# [44] = tested on: SK-MEL-5
# [45] = tested on: SF-539
# [46] = tested on: U-251
# [47] = tested on: NCI-H23
# [48] = tested on: CAKI-1
# [49] = tested on: DU-145
# [50] = tested on: OVCAR-8
# [51] = tested on: SNB-19
# [52] = tested on: RXF 393
# [53] = tested on: HOP-92
# [54] = tested on: OVCAR-3
# [55] = tested on: SW-620
# [56] = tested on: HCC 2998
# [57] = tested on: HL-60
# [58] = tested on: PC-3
# [59] = tested on: UACC-257
compound,measurement,setting,value
O=C(O)C(CO)NC(=O)C1C(C(=O)O)C(c2ccccc2[N+](=O)[O-])C=C(c2ccco2)N1c1ccncc1 (configuration not stated),GI50,[1],3.26 µM (inactive)
same,GI50,[2],13.4 µM (inactive)
same,GI50,[3],9.55 µM (inactive)
same,GI50,[4],14.5 µM (inactive)
same,GI50,[5],4.62 µM (inactive)
same,GI50,[6],2.19 µM (inactive)
same,GI50,[7],0.9 µM (active)
same,GI50,[8],1.91 µM (inactive)
same,GI50,[9],1.57 µM (inactive)
same,GI50,[10],5.85 µM (inactive)
same,GI50,[11],11.7 µM (inactive)
same,GI50,[12],4.62 µM (inactive)
same,GI50,[13],5.16 µM (inactive)
same,GI50,[14],10.2 µM (inactive)
same,GI50,[15],3.08 µM (inactive)
same,GI50,[16],1.95 µM
same,GI50,[17],13.5 µM (inactive)
same,GI50,[18],2.84 µM (inactive)
same,GI50,[19],11.8 µM (inactive)
same,GI50,[20],1.58 µM (inactive)
same,GI50,[21],12.2 µM (inactive)
same,GI50,[22],14.9 µM (inactive)
same,GI50,[23],2.04 µM (inactive)
same,GI50,[24],9.23 µM (inactive)
same,GI50,[25],1.73 µM (inactive)
same,GI50,[26],3.33 µM (inactive)
same,GI50,[27],1.67 µM (inactive)
same,GI50,[28],4.61 µM (inactive)
same,GI50,[29],7.83 µM (inactive)
same,GI50,[30],6.31 µM (inactive)
same,GI50,[31],2.9 µM (inactive)
same,GI50,[32],7.05 µM (inactive)
same,GI50,[33],16.3 µM (inactive)
same,GI50,[34],8.97 µM (inactive)
same,GI50,[35],15.1 µM (inactive)
same,GI50,[36],1.81 µM (inactive)
same,GI50,[37],2.44 µM (inactive)
same,GI50,[38],4.32 µM (inactive)
same,GI50,[39],12.7 µM (inactive)
same,GI50,[40],1.99 µM (inactive)
same,GI50,[41],12.6 µM (inactive)
same,GI50,[42],3.68 µM (inactive)
same,GI50,[43],1.99 µM (inactive)
same,GI50,[44],4.49 µM (inactive)
same,GI50,[45],1.84 µM (inactive)
same,GI50,[46],2.34 µM (inactive)
same,GI50,[47],7.16 µM (inactive)
same,GI50,[48],8.85 µM (inactive)
same,GI50,[49],11.4 µM (inactive)
same,GI50,[50],5.53 µM (inactive)
same,GI50,[51],12 µM (inactive)
same,GI50,[52],1.64 µM (inactive)
same,GI50,[53],12.1 µM (inactive)
same,GI50,[54],6.28 µM (inactive)
same,GI50,[55],1.87 µM (inactive)
same,GI50,[56],4.91 µM (inactive)
same,GI50,[57],2.97 µM (inactive)
same,GI50,[58],9.35 µM (inactive)
same,GI50,[59],3.61 µM (inactive)
COc1cccc(/C=N/n2c(Cc3ccc(Cl)cc3)n[nH]c2=O)c1,GI50,[1],58.6 µM (inactive)
same,GI50,[2],44.6 µM (inactive)
same,GI50,[3],> 100 µM (inactive)
same,GI50,[4],> 28.2 µM (inactive)
same,GI50,[5],> 100 µM (inactive)
same,GI50,[6],> 100 µM (inactive)
same,GI50,[7],> 76.9 µM (inactive)
same,GI50,[8],36.6 µM (inactive)
same,GI50,[9],25.6 µM (inactive)
same,GI50,[10],26.1 µM (inactive)
same,GI50,[11],> 78.7 µM (inactive)
same,GI50,[12],24.3 µM (inactive)
same,GI50,[13],> 100 µM (inactive)
same,GI50,[14],16.1 µM (inactive)
same,GI50,[15],25.1 µM (inactive)
same,GI50,[16],99.3 µM
same,GI50,[17],23.4 µM (inactive)
same,GI50,[18],> 100 µM (inactive)
same,GI50,[19],59 µM (inactive)
same,GI50,[20],> 77.6 µM (inactive)
same,GI50,[21],15.4 µM (inactive)
same,GI50,[22],29.6 µM (inactive)
same,GI50,[23],33.5 µM (inactive)
same,GI50,[24],30.6 µM (inactive)
same,GI50,[25],> 100 µM (inactive)
same,GI50,[26],19.7 µM (inactive)
same,GI50,[27],47.8 µM (inactive)
same,GI50,[28],14.7 µM (inactive)
same,GI50,[29],34.2 µM (inactive)
same,GI50,[30],> 91.4 µM (inactive)
same,GI50,[31],74 µM (inactive)
same,GI50,[32],17.1 µM (inactive)
same,GI50,[33],32.7 µM (inactive)
same,GI50,[34],11.7 µM (inactive)
same,GI50,[35],27.7 µM (inactive)
same,GI50,[36],12.4 µM (inactive)
same,GI50,[37],> 100 µM (inactive)
same,GI50,[38],> 100 µM (inactive)
same,GI50,[39],> 92.9 µM (inactive)
same,GI50,[40],29.9 µM (inactive)
same,GI50,[41],15.9 µM (inactive)
same,GI50,[42],> 73.5 µM (inactive)
same,GI50,[43],> 100 µM (inactive)
same,GI50,[44],> 100 µM (inactive)
same,GI50,[45],15.8 µM (inactive)
same,GI50,[46],22.8 µM (inactive)
same,GI50,[47],27.9 µM (inactive)
same,GI50,[48],23.4 µM (inactive)
same,GI50,[49],25.8 µM (inactive)
same,GI50,[50],16.9 µM (inactive)
same,GI50,[51],27.3 µM (inactive)
same,GI50,[52],2 µM (inactive)
same,GI50,[53],23.1 µM (inactive)
same,GI50,[54],> 100 µM (inactive)
same,GI50,[55],> 100 µM (inactive)
same,GI50,[56],> 100 µM (inactive)
same,GI50,[57],> 100 µM (inactive)
same,GI50,[58],56.5 µM (inactive)
same,GI50,[59],> 100 µM (inactive)
O=[N+]([O-])O [NITRIC ACID],GI50,[1],> 100 µM (inactive)
same,GI50,[2],> 100 µM (inactive)
same,GI50,[3],> 100 µM (inactive)
same,GI50,[4],> 100 µM (inactive)
same,GI50,[5],> 100 µM (inactive)
same,GI50,[6],> 100 µM (inactive)
same,GI50,[7],77.1 µM (inactive)
same,GI50,[8],> 100 µM (inactive)
same,GI50,[9],> 100 µM (inactive)
same,GI50,[10],> 100 µM (inactive)
same,GI50,[11],> 100 µM (inactive)
same,GI50,[12],> 100 µM (inactive)
same,GI50,[13],> 100 µM (inactive)
same,GI50,[14],> 100 µM (inactive)
same,GI50,[15],> 100 µM (inactive)
same,GI50,[16],> 100 µM
same,GI50,[17],> 100 µM (inactive)
same,GI50,[18],> 100 µM (inactive)
same,GI50,[19],> 100 µM (inactive)
same,GI50,[20],> 100 µM (inactive)
same,GI50,[21],> 100 µM (inactive)
same,GI50,[22],> 100 µM (inactive)
same,GI50,[23],> 100 µM (inactive)
same,GI50,[24],> 100 µM (inactive)
same,GI50,[25],> 100 µM (inactive)
same,GI50,[26],> 100 µM (inactive)
same,GI50,[27],> 100 µM (inactive)
same,GI50,[28],> 100 µM (inactive)
same,GI50,[29],> 100 µM (inactive)
same,GI50,[30],> 100 µM (inactive)
same,GI50,[31],> 100 µM (inactive)
same,GI50,[32],> 100 µM (inactive)
same,GI50,[33],> 100 µM (inactive)
same,GI50,[34],> 100 µM (inactive)
same,GI50,[35],> 100 µM (inactive)
same,GI50,[36],> 100 µM (inactive)
same,GI50,[37],> 100 µM (inactive)
same,GI50,[38],> 100 µM (inactive)
same,GI50,[39],> 100 µM (inactive)
same,GI50,[40],> 100 µM (inactive)
same,GI50,[41],> 100 µM (inactive)
same,GI50,[42],> 100 µM (inactive)
same,GI50,[43],> 100 µM (inactive)
same,GI50,[44],> 100 µM (inactive)
same,GI50,[45],> 100 µM (inactive)
same,GI50,[46],> 100 µM (inactive)
same,GI50,[47],> 100 µM (inactive)
same,GI50,[48],> 100 µM (inactive)
same,GI50,[49],> 100 µM (inactive)
same,GI50,[50],> 100 µM (inactive)
same,GI50,[51],> 100 µM (inactive)
same,GI50,[52],> 100 µM (inactive)
same,GI50,[53],> 100 µM (inactive)
same,GI50,[54],> 100 µM (inactive)
same,GI50,[55],> 100 µM (inactive)
same,GI50,[56],> 100 µM (inactive)
same,GI50,[57],> 100 µM (inactive)
same,GI50,[58],> 100 µM (inactive)
same,GI50,[59],> 100 µM (inactive)
